Values after ≈ are worked out from the molar mass of the structure shown. Values joined by “and” are separate entries in the source; they are usually repeats but may differ in a detail not shown here. Equal values may be shown once. Read-outs that look alike come from different tables or passages of the source.
Assays:
herpes virus (HSV-1) = experiment: Virucidal activity against HSV-1 (Tables 14, 15, FIG. 5); format: cell-based; conditions: for No of plaques: Table 15, J1816 0, NaCitrate 0.90%
influenza virus B/T/1/05 = experiment: Time course of virucidal activity at 37° C., infectivity by plaque assay in MDCK cells (FIGS. 6 to 12); format: cell-based
Procedure: The experiments in FIGS. 7 to 12 were carried out at 37° C. The infectivity of viruses was determined using MDCK cells by the plaque assay method.
This virucidal activity of octyl gallate was reinforced by propyl gallate also against influenza virus A/Aichi (H3N2) in the same manner as above.

[1] = test system: influenza virus A/Aichi (H3N2); experiment: Virucidal activity against influenza virus A/Aichi (H3N2) (Table 16); conditions: for No of plaques: Table 16
[2] = test system: clinical isolates MRSA and MSSA; conditions: for Recrystalized octyl gallate MIC: sodium ascorbate 0.5 mg/ml; for MIC50 / MIC: Staphylococcus aureus, MRSA|MSSA; for MIC50: read-out: MIC50, 24 h MIC, MRSA, trisodium citrate medium
[3] = test system: gram-positive and gram-negative bacteria; experiment: MIC (minimum growth inhibition concentration), 2-fold serial agar plate dilution on Mueller Hinton II Agar, with concomitant alkyl gallate and salt; conditions: for MIC: 24 h

CCCCCCCCOC(=O)c1cc(O)c(O)c(O)c1 [octyl gallate]
No of plaques (herpes virus (HSV-1); octyl gallate 60 mg/L, propyl gallate 300 mg/L): 0 | No of plaques (herpes virus (HSV-1); octyl gallate 100 mg/L): 0 | No of plaques (herpes virus (HSV-1); octyl gallate 100 mg/L, propyl gallate 300 mg/L): 0 | virucidal activity of octyl gallate against HSV-1 (herpes virus (HSV-1); with 60 mg/L of propyl gallate, FIG. 5): marked reinforcement | time required for killing viruses (influenza virus B/T/1/05; concomitant use of octyl gallate and propyl gallate, FIG. 6): shortened to a large extent | virucidal activity of octyl gallate alone (influenza virus B/T/1/05; influenza virus B/T/1/05, FIG. 7): has a virucidal activity | time until the infectivity to cells is lost (influenza virus B/T/1/05; octyl gallate 30 mg/L and propyl gallate 300 mg/L, 37° C., FIG. 12): ≤ 1 min | No of plaques ([1]; octyl gallate 20 mg/L, J1816 60 mg/L, NaCitrate 0.90%): 0 | No of plaques ([1]; octyl gallate 20 mg/L, propyl gallate 300 mg/L, J1816 150 mg/L, NaCitrate 0.90%): 0 | No of plaques ([1]; octyl gallate 40 mg/L, J1816 20 mg/L, NaCitrate 0.90%): 0 | No of plaques ([1]; octyl gallate 40 mg/L, propyl gallate 300 mg/L, J1816 210 mg/L, NaCitrate 0.90%): 0 | No of plaques ([1]; octyl gallate 60 mg/L, J1816 180 mg/L, NaCitrate 0.90%): 0 | No of plaques ([1]; octyl gallate 60 mg/L, J1816 180 mg/L, NaCitrate not given): 0 | No of plaques ([1]; octyl gallate 60 mg/L, propyl gallate 300 mg/L, J1816 270 mg/L, NaCitrate 0.90%): 0 | No of plaques ([1]; octyl gallate 80 mg/L, J1816 240 mg/L, NaCitrate 0.90%): 0 | No of plaques ([1]; octyl gallate 80 mg/L, propyl gallate 300 mg/L, J1816 330 mg/L, NaCitrate 0.90%): 0 | No of plaques ([1]; octyl gallate 100 mg/L, J1816 300 mg/L, NaCitrate 0.90%): 0 | No of plaques ([1]; octyl gallate 100 mg/L, propyl gallate 300 mg/L, J1816 390 mg/L, NaCitrate 0.90%): 0 | virucidal activity of octyl gallate against influenza virus A/Aichi (H3N2) ([1]; with propyl gallate): reinforced | Recrystalized octyl gallate MIC ([2]; MHA (+0.9% disodium hydrogen citrate), DDW, 24 h): 0.625 µg/mL and 1.25 µg/mL | Recrystalized octyl gallate MIC ([2]; MHA (+0.9% trisodium citrate), propyl gallate 100 mg/L (with J-1216), 24 h): 1.25 µg/mL | Recrystalized octyl gallate MIC ([2]; MHA (+0.9% trisodium citrate), propyl gallate 200 mg/L (with J-1216), 24 h): 0.625 µg/mL and 1.25 µg/mL | octyl gallate concentration at which all strains were killed ([2]; MRSA (21 strains) and MSSA (8 strains), concomitant propyl gallate 50 mg/L, disodium hydrogen citrate): 1.25 mg/L | MIC50 ([2]; 24 h, J-1216 600 mg/L): 20 µg/mL (≈ 70.8 µM) | MIC50 ([2]; 24 h, propyl gallate 75 mg/L): 10 µg/mL (≈ 35.4 µM) | MIC50 ([2]; 24 h, propyl gallate 100 mg/L): 2.5 µg/mL (≈ 8.85 µM) | MIC50 ([2]; 24 h, propyl gallate 200 mg/L): 2.5 µg/mL (≈ 8.85 µM) | MIC ([2]; 24 h, read-out: MIC100, 24 h MIC, MRSA, disodium hydrogen citrate medium, DDW): 2.5 µg/mL (≈ 8.85 µM) | MIC ([2]; 24 h, read-out: MIC100, 24 h MIC, MRSA, disodium hydrogen citrate medium, propyl gallate 50 mg/L): 1.25 µg/mL (≈ 4.43 µM) | MIC ([2]; 24 h, read-out: MIC100, 24 h MIC, MRSA, trisodium citrate medium, J-1216 600 mg/L): 50 µg/mL (≈ 177 µM) | MIC ([2]; 24 h, read-out: MIC100, 24 h MIC, MRSA, trisodium citrate medium, propyl gallate 75 mg/L): 10 µg/mL (≈ 35.4 µM) | MIC ([2]; 24 h, read-out: MIC100, 24 h MIC, MRSA, trisodium citrate medium, propyl gallate 100 mg/L): 5 µg/mL (≈ 17.7 µM) | MIC ([2]; 24 h, read-out: MIC100, 24 h MIC, MRSA, trisodium citrate medium, propyl gallate 200 mg/L): 5 µg/mL (≈ 17.7 µM) | MIC ([2]; 24 h, read-out: Octyl gallate MIC, CAMHA, isoamyl gallate 50 μg/mL, 24 h): ≤ 0.0244 µg/mL | MIC ([2]; 24 h, read-out: Recrystalized octyl gallate MIC, MHA (+0.9% disodium hydrogen citrate), sodium ascorbate 0.5 mg/ml, DDW, 24 h): 2.5 µg/mL (≈ 8.85 µM) | MIC ([2]; 24 h, read-out: Recrystalized octyl gallate MIC, MHA (+0.9% disodium hydrogen citrate), sodium ascorbate 0.5 mg/ml, propyl gallate 50 mg/L, 24 h): 1.25 µg/mL (≈ 4.43 µM) | MIC ([2]; 24 h, read-out: Recrystalized octyl gallate MIC, MHA (+0.9% trisodium citrate), sodium ascorbate 0.5 mg/ml, propyl gallate 100 mg/L (with J-1216), 24 h): 2.5 µg/mL (≈ 8.85 µM) | MIC ([2]; 24 h, read-out: Recrystalized octyl gallate MIC, MHA (+0.9% trisodium citrate), sodium ascorbate 0.5 mg/ml, propyl gallate 200 mg/L (with J-1216), 24 h): 2.5 µg/mL (≈ 8.85 µM) | MIC ([2]; 48 h, read-out: Octyl gallate MIC, Isoamyl G none, 48 h, strain = c6 of each row): 31.2 µg/mL (≈ 111 µM) | MIC Range, 24 h MIC, MRSA ([2]; disodium hydrogen citrate medium, DDW): 0.625 to 2.5 µg/mL | MIC Range, 24 h MIC, MRSA ([2]; disodium hydrogen citrate medium, propyl gallate 50 mg/L): 0.625 to 1.25 µg/mL | MIC Range, 24 h MIC, MRSA ([2]; trisodium citrate medium, J-1216 600 mg/L): 20 to 50 µg/mL | MIC Range, 24 h MIC, MRSA ([2]; trisodium citrate medium, propyl gallate 75 mg/L): 2.5 to 10 µg/mL | MIC Range, 24 h MIC, MRSA ([2]; trisodium citrate medium, propyl gallate 100 mg/L): 1.25 to 5 µg/mL | MIC Range, 24 h MIC, MRSA ([2]; trisodium citrate medium, propyl gallate 200 mg/L): 0.0625 to 5 µg/mL | MIC ([3]; read-out: Octyl gallate MIC, NaCl 4%, isoamyl gallate 100 μg/mL): 0.98 µg/mL | MIC ([3]; read-out: Recrystalized octyl gallate MIC, Dec. 24, 2007, MHA (+0.9% disodium hydrogen citrate), sodium ascorbate 0.5 mg/ml, propyl gallate 300 mg/L): > 100 µg/mL | change of MIC value of octyl gallate by isoamyl gallate ([3]; as the amount of NaCl added (2 to 4%) increases (Table 4)): markedly decreased | effect on bacteria of concomitant use with propyl gallate ([3]; propyl gallate 300 mg/L, except for three strains of bacteria): completely killed | MIC of octyl gallate lower than that of chlorhexidine gluconate, maximum ([3]; with isoamyl gallate at or below MIC and NaCl): ≤ 640 times

Reference: patent US20100056627A1, “PHARMACEUTICAL COMPOSITIONS OF ALKYL GALLATES” (priority 2006, published 2010)
